Results reported in patent US20120107277A1, “USE OF THE COMBINATION OF TERIFLUNOMIDE AND INTERFERON BETA FOR TREATING MULTIPLE SCLEROSIS” (SANOFI-AVENTIS U.S LLC, priority 2009, published 2012).

Assays:
Assay type in all cases: in vivo, human
[1] = tested on: relapsing-remitting multiple sclerosis patient; experiment: Brain MRI Gd-enhancing T1-lesions, 24-week add-on study (Example 1); conditions: for Patients with >=1 Gd-enhancing T1-lesions post-baseline, No (% of patients; free of T1-Gd lesions): 24 weeks, ITT; for Relative risk reduction in the number of T1-Gd lesions compared with placebo added to IFN-beta / Relative reduction of T1-Gd lesion volume compared to placebo: 24 week; for Relative risk reduction in the number of T1-Gd lesions compared with placebo added to IFN-beta: adjusted
Method: (§1) A placebo-controlled, double-blinded, randomized, 3-parallel group stratified study was conducted in relapsing-remitting multiple sclerosis patient who were concurrently on a stable dose of interferon beta. The dose level of interferon beta was defined as follows: • Low dose: AVONEX® (interferon beta-1a) 30 mcg once a week intramuscularly, or REBIF® (interferon beta-1a) 22 mcg three times per week subcutaneously. • High dose: REBIF® 44 mcg three times per week subcutaneously, or BETASERON® (interferon beta-1b) 0.25 mg every other day subcutaneously.
(§2) Around 40 patients were treated in each treatment group (placebo: 41, 7 mg: 37, and 14 mg: 38). A third of patients in each group were treated with low dose interferon beta 1a. […] The mean age of the study population was 40.1 years. […] The base line Expanded Disability Status Scale (EDSS) score was similar between treatment groups (around 2.5).
(§3) Safety was evaluated from Treatment Emergent Adverse Event (TEAE), physical examination and laboratory data (e.g. Liver Function Test, every 2-8 weeks), ECG and abdominal ultrasound (24-weeks). Brain MRI (magnetic resonance image) activity, including T1-gadolinium (T1-Gd) with central reading were recorded every 8-week. Relapses were recorded and EDSS was performed at 24-week.

[2] = tested on: relapsing-remitting multiple sclerosis patient; experiment: MS relapse, 24-week add-on study (Example 1); conditions: 24 weeks, ITT
Method: as §1, §2, §3

[3] = tested on: relapsing-remitting multiple sclerosis patient; experiment: Brain MRI Gd-enhancing T1-lesions, 48-week double-blind treatment period (Example 2); conditions: for Patients with >=1 Gd-enhancing T1-lesions post-baseline, No (% of patients; free of T1-Gd lesions): 48 weeks, ITT; for Relative risk reduction in the number of T1-Gd lesions compared with placebo added to IFN-beta / Relative reduction of T1-Gd lesion volume compared to placebo: 48 week; for Relative risk reduction in the number of T1-Gd lesions compared with placebo added to IFN-beta: adjusted
Method: as §1
(§4) Design/Methods: 86 of the 116 patients that were randomized to treatment (placebo: 41; 7 mg: 37; 14 mg: 38) for the first 6-months in Example 1 completed this 6-month period and accepted to continue medication for an additional 6-month period (placebo: 31, 7 mg: 28, 14 mg: 27). Safety was evaluated from TEAE, physical exam (every 6 weeks), laboratory data (every 6 weeks), ECG (at the close-out visit), pancreatic ultrasound (at the close-out visit) and brain MRI (at the close-out visit). Relapses were recorded and EDSS was performed every 6-weeks. Annualized relapse rates (ARR) were estimated by a Poisson model adjusted to IFN strata and to geographical regions. The following results report the entire 48-week double-blind treatment period.

[4] = tested on: relapsing-remitting multiple sclerosis patient; experiment: Safety (TEAE, laboratory data), 24-week add-on study (Example 1); conditions: 24 weeks
Method: as §1, §2, §3

[5] = tested on: relapsing-remitting multiple sclerosis patient; experiment: MS relapse, 48-week double-blind treatment period (Example 2)
Method: as §1, §4

[6] = tested on: relapsing-remitting multiple sclerosis patient; experiment: Safety (TEAE, laboratory data), 48-week double-blind treatment period (Example 2); conditions: 48 weeks
Method: as §1, §4

[7] = 14 mg teriflunomide in addition to stable-dose IFN-beta, p<0.0001
[8] = 7 mg teriflunomide added to stable-dose interferon beta
[9] = 14 mg teriflunomide added to stable-dose interferon beta
[10] = 7 mg teriflunomide added to stable-dose IFN-beta
[11] = 14 mg teriflunomide added to stable-dose IFN-beta

For C/C(O)=C(\C#N)C(=O)Nc1ccc(C(F)(F)F)cc1 [teriflunomide, (Z)-2-cyano-3-hydroxy-but-2-enoic acid-(4′-trifluoromethylphenyl)-amide], the “Patients with >=1 Gd-enhancing T1-lesions post-baseline, No (% of patients; free of T1-Gd lesions)” value ([1]; 7 mg teri + IFN-β) was 69.4%, the “Relative risk reduction in the number of T1-Gd lesions compared with placebo added to IFN-beta” value (“Relative risk reduction in the number” for short) ([1]; 7 mg teriflunomide in addition to stable-dose IFN-beta, p=0.0009) was 82.6% and the “Relative reduction of T1-Gd lesion volume compared to placebo” value (from here on “Relative reduction”) ([1]; 7 mg teriflunomide in addition to stable-dose IFN-beta, p=0.1931) was 67.6%. The “Patients with >=1 Gd-enhancing T1-lesions post-baseline, No (% of patients; free of T1-Gd lesions)” value ([1]; 14 mg teri + IFN-β) was 81.6%, the “Relative risk reduction in the number” value [1, 7] was 84.4% and the “Relative reduction” value ([1]; 14 mg teriflunomide in addition to stable-dose IFN-beta, p=0.0072) was 64.7%. The “Total number of relapses” value ([2]; 7 mg teri + IFN-β, 16.4 patient-years followed) was 5, the “Total number of relapses” value ([2]; 14 mg teri + IFN-β, 17.3 patient-years followed) was 2 and the “Patients with >=1 Gd-enhancing T1-lesions post-baseline, No (% of patients; free of T1-Gd lesions)” value ([3]; 7 mg teri + IFN-β) was 69.4%. The “Relative risk reduction in the number” value ([3]; 7 mg teriflunomide in addition to stable-dose IFN-beta, p=0.0005) was 84.6%, the “Relative reduction” value ([3]; 7 mg teriflunomide in addition to stable-dose IFN-beta, p=0.1104) was 72.1% and the “Patients with >=1 Gd-enhancing T1-lesions post-baseline, No (% of patients; free of T1-Gd lesions)” value ([3]; 14 mg teri + IFN-β) was 76.3%. For the same compound, the “Relative risk reduction in the number” value [3, 7] was 82.8%, the “Relative reduction” value ([3]; 14 mg teriflunomide in addition to stable-dose IFN-beta, p=0.0154) was 70.6% and the “Proportion of patients with ALT/SGPT greater than 3xULN” value [4, 8] was 0%. For the same compound, the “Proportion of patients with TEAE due to increased ALT/SGPT” value [4, 8] was 13.5%, the “Proportion of patients with TEAE potentially related to immunosuppression (white blood cell counts, infections and infestations)” value [4, 8] was 49% and the “Upper respiratory tract infections (nasopharyngitis, sinusitis), proportion of patients” value [4, 8] was 10.8%. The “Proportion of patients with ALT/SGPT greater than 3xULN” value [4, 9] was 5.3%, the “Proportion of patients with TEAE due to increased ALT/SGPT” value [4, 9] was 28.9% and the “Proportion of patients with TEAE potentially related to immunosuppression (white blood cell counts, infections and infestations)” value [4, 9] was 50%. For the same compound, the “Upper respiratory tract infections (nasopharyngitis, sinusitis), proportion of patients” value [4, 9] was 23.7%, the “Concomitant bilirubin increase (with ALT/SGPT increase)” value ([4]; all groups, 7 mg or 14 mg teriflunomide added to stable-dose interferon beta) was “no case” and the “Reduction in annualized relapse rate compared to IFN-beta” value ([5]; 7 mg teriflunomide in addition to stable-dose IFN-beta, p=0.43) was 32.6%. The “Reduction in annualized relapse rate compared to IFN-beta” value ([5]; 14 mg teriflunomide in addition to stable-dose IFN-beta, p=0.11) was 57.9%, the “Patients with ALT increased above 3ULN without concomitant increase in bilirubin (number)” value [6, 10] was 1 and the “TEAE all gastrointestinal disorders” value [6, 10] was 18.9%. The “TEAE all type of headaches” value [6, 10] was 5.4%, the “TEAE upper respiratory tract infections as a whole” value [6, 10] was 16.2% and the “TEAEs that led to treatment discontinuation (number)” value [6, 10] was 3. The “White blood cell counts decreases (number)” value [6, 10] was 3, the “Patients with ALT increased above 3ULN without concomitant increase in bilirubin (number)” value [6, 11] was 3 and the “TEAE all gastrointestinal disorders” value [6, 11] was 31.6%. For the same compound, the “TEAE all type of headaches” value [6, 11] was 18.4%, the “TEAE upper respiratory tract infections as a whole” value [6, 11] was 23.7% and the “TEAEs that led to treatment discontinuation (number)” value [6, 11] was 3. For the same compound, the “White blood cell counts decreases (number)” value [6, 11] was 4.
